Source: ChEMBL document CHEMBL1147549, “Imidazole acetic acid TAFIa inhibitors: SAR studies centered around the basic P(1)(') group” (Bioorg Med Chem Lett, 2004)

Experiments:
Carboxypeptidase B2 = target: T1, Carboxypeptidase B2 (Homo sapiens, UniProt Q96IY4); experiment: Inhibitory potency against human TAFIa (thrombin-activatable fibrinolysis inhibitor)
T1 sequence (Q96IY4 whole entry): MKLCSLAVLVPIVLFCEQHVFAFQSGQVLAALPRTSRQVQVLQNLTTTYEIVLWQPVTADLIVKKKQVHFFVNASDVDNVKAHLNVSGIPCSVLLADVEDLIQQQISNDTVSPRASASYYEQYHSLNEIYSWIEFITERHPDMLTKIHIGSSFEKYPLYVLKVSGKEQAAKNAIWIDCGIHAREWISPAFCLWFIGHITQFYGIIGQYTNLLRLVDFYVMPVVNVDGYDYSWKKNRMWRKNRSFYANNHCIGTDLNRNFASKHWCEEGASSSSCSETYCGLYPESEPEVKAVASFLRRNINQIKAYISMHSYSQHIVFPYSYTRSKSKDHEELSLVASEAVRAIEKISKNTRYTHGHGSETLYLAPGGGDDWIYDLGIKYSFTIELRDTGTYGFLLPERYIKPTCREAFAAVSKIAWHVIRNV

Carboxypeptidase B = target: T2, Carboxypeptidase B (Homo sapiens, UniProt P15086); experiment: Inhibition of human carboxypeptidase B (CPB)
T2 sequence (P15086 whole entry): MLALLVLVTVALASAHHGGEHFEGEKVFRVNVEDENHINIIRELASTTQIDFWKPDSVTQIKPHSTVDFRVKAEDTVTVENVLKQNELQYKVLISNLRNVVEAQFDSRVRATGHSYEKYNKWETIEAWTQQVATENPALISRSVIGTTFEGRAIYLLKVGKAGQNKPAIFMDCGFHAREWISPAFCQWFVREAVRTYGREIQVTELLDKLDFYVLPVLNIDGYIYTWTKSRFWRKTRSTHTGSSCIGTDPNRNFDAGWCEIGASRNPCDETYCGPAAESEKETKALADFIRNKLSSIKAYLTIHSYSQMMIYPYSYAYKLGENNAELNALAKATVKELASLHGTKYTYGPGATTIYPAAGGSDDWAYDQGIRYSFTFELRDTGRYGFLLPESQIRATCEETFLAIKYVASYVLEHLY

Homo sapiens = species on record: Homo sapiens; experiment: Selectivity for TAFIa versus CPB carboxypeptidase B isoforms
[1] = Concentration providing 50% acceleration of clot lysis in pooled human plasma; type: functional

Row | SMILES | IC50 (Carboxypeptidase B2) | IC50 (Carboxypeptidase B) | Selectivity (Homo sapiens) | CLT50 [1]
1 | CN(C)CCCCC(C(=O)O)c1cnc[nH]1 (configuration not stated) | > 50000 nM | – | – | –
2 | CNc1ccc(CC(C(=O)O)c2cnc[nH]2)cn1 (configuration not stated) | 13000 nM | – | – | –
3 | O=C(O)C(CCC1CCNC1)c1cnc[nH]1 (configuration not stated) | > 20000 nM | – | – | –
4 | Nc1cc(CC(C(=O)O)c2c[nH]cn2)ccn1 (configuration not stated) | 12000 nM | – | – | –
5 | O=C(O)C(CCC1CNC1)c1cnc[nH]1 (configuration not stated) | > 20000 nM | – | – | –
6 | CC(C)CCn1cnc(C(Cc2ccc(N)nc2)C(=O)O)c1 (configuration not stated) | – | 4 nM | – | ==0.12 uM
7 | Nc1ncc(CC(C(=O)O)c2c[nH]cn2)cc1F (configuration not stated) | 6700 nM | – | – | –
8 | O=C(O)C(CC1CCCNCC1)c1c[nH]cn1 (configuration not stated) | > 20000 nM | – | – | –
9 | Nc1ncc(CC(C(=O)O)c2c[nH]cn2)cn1 (configuration not stated) | 67000 nM | – | – | –
10 | Cc1nc(N)ccc1CC(C(=O)O)c1c[nH]cn1 (configuration not stated) | 5800 nM | – | – | –
11 | Nc1ccc(CC(C(=O)O)c2c[nH]cn2)cn1 (configuration not stated) | – | 70 nM | – | 0.97 µM
12 | NC1CCCC(CC(C(=O)O)c2c[nH]cn2)C1 (configuration not stated) | > 20000 nM | – | – | –
13 | O=C(O)C(CCC1CCNCC1)c1c[nH]cn1 (configuration not stated) | > 20000 nM | – | – | –
14 | O=C(O)C(CCC1CCCNCC1)c1cnc[nH]1 (configuration not stated) | > 20000 nM | – | – | –
15 | NCCCC(C(=O)O)c1cnc[nH]1 (configuration not stated) | 6800 nM | – | – | –
16 | Nc1cccc(CC(C(=O)O)c2cnc[nH]2)n1 (configuration not stated) | 15000 nM | – | – | –
17 | O=C(O)C(CC1CCNCC1)c1cnc[nH]1 (configuration not stated) | > 20000 nM | – | – | –
18 | NC1CCC(CC(C(=O)O)c2cnc[nH]2)CC1 (configuration not stated) | 7000 nM | – | – | –
19 | O=C(O)C(CC1CNC1)c1cnc[nH]1 (configuration not stated) | > 20000 nM | – | – | –
20 | CC(CN)CCC(C(=O)O)c1c[nH]cn1 (configuration not stated) | – | – | 5.6 | –
21 | O=C(O)C(CC1CCNC1)c1c[nH]cn1 (configuration not stated) | > 20000 nM | – | – | –
22 | CNCCCCC(C(=O)O)c1cnc[nH]1 (configuration not stated) | 26000 nM | – | – | –

Now from value to compound, other results behind:

Row | IC50 (Carboxypeptidase B2) | IC50 (Carboxypeptidase B) | Selectivity (Homo sapiens) | SMILES | CLT50 [1]
23 | 380 nM | 600 nM | 1.6 | CC(C)(CN)CCC(C(=O)O)c1c[nH]cn1 (configuration not stated) | –
24 | 590 nM | 3700 nM | 6.3 | NCCCCC(C(=O)O)c1c[nH]cn1 (configuration not stated) | >=20 uM
25 | 1500 nM | – | – | Cc1cc(N)ncc1CC(C(=O)O)c1c[nH]cn1 (configuration not stated) | –
26 | 270 nM | 1500 nM | – | CC(CN)CCC(C(=O)O)c1cnc[nH]1 (configuration not stated) | –
27 | 12 nM | 1 nM | 0.08 | Cc1cc(CC(C(=O)O)c2cn(CCC(C)(C)C)cn2)cnc1N (configuration not stated) | 0.159 µM
28 | 100 nM | 20 nM | 0.2 | Cc1cc(CC(C(=O)O)c2c[nH]cn2)cnc1N (configuration not stated) | 2.1 µM
29 | 1 nM | 1 nM | 1 | CC(C)(C)CCn1cnc(C(C[C@H]2CC[C@H](N)C2)C(=O)O)c1 (some centres not stated) | 0.014 µM
30 | 4700 nM | – | – | NCCCCCC(C(=O)O)c1cnc[nH]1 (configuration not stated) | –
31 | 3300 nM | – | – | O=C(O)C(Cc1ccc2nccn2c1)c1cnc[nH]1 (configuration not stated) | –
32 | 23 nM | 1 nM | 0.04 | Cc1cc(CC(C(=O)O)c2cn(CCC(C)C)cn2)cnc1N (configuration not stated) | 0.17 µM
33 | 24 nM | 160 nM | 6.7 | CC(C)CCn1cnc(C(CCCCN)C(=O)O)c1 (configuration not stated) | 0.21 µM
34 | 5300 nM | – | – | Nc1ncc(CC(C(=O)O)c2cnc[nH]2)cc1Cl (configuration not stated) | –
